Reference: patent US20260284150A1, “TOPICAL PROTEIN BASED FORMULATION” (OPTIMUS SALVUS LIMITED, priority 2023, published 2026)

Legend:
[1] = CBD dosage optimisation and cell toxicity assay (WST-1); assay type: cell-based; conditions: human; HDF cells, 24 hours incubation, WST-1 reagent, CBD up to 25 μg/mL; read-out: CBD concentrations toxic to human fibroblast cells
Procedure: The following reagents were purchased from ThermoFisher: Human Fibroblast Expansion Basal Medium, Low Serum Growth Supplement (LSGS), EpiLife™ Medium with 60 μM calcium, Human Keratinocyte Growth Supplement (HKGS), Trypsin-EDTA (0.05%), phenol red. Fetal Bovine Serum (French Origin) was purchased from Scientifix. Human skin cells: Fibroblasts (HDF) and Keratinocyte (HEK) cells were purchased from Sigma Aldrich and ThermoFisher respectively. HDF cells were grown in Fibroblast media supplemented with 1×LSGS, while HEK cells were grown in Keratinocyte media supplemented with 1×HKGS. Both cell lines were kept in an incubator at 37° C., with 5% CO2.
The human skin cells (HDF and HEK) were cultured in respective media and were grown in T25 flasks until ~70-80% confluent. Once confluent, the cells were washed with 1×PBS and split using 0.05% Trypsin-EDTA solution. The cell pellet was collected and split into a fresh T25 flask and T75 flask containing full growth media at a dilution factor of 1:4 and incubated at 37° C., 5% CO2. Cells were >85-92% viable based on Trypan blue exclusion when seeding and passing. […]

[2] = HEDS (2-hydroxyethyl disulphide) enzyme assay, NADPH consumption at A340 nm; assay type: biochemical; conditions: coupled with glutathione (GSH) and glutathione reductase (GR); versus buffer control without CLIC
Procedure: The functional activity of the purified CLIC1, CLIC3 and CLIC4 proteins were analysed using the HEDS assay. The assay measures the ability of the CLIC proteins to reduce the HEDS substrate when coupled with glutathione (GSH) and glutathione reductase (GR) resulting in the consumption of NADPH that is monitored at A340 nm.

| Compound | MCC at 24 h [1] [µg/mL] | enzymatic activity: reduction of HEDS substrate, decrease in absorbance at 340 nm (consumption of NADPH) [2] |
| --- | --- | --- |
| C=C(C)[C@@H]1CCC(C)=C[C@H]1c1c(O)cc(CCCCC)cc1O [CBD, cannabidiol] | > 4 | – |
| CLIC4: purified recombinant human chloride intracellular channel protein 4, expressed in E. coli, GST tag cleaved | – | significant enzymatic activity |
